Data published in US20100240746A1, “STEREOISOMERS OF TRICYCLODECAN-9-YL-XANTHOGENATE” (LUMAVITA AG, priority 2007, published 2010).
≈ marks a conversion by molar mass, not a printed value. Entries after “also recorded” stand apart in the source; their conditions may differ. Like-named read-outs stand apart in the source and are kept apart here.

Experiments:
[1] = system: HPV-31 specific DNA in HPV-31-infected CIN612 9E keratinocytes; test: Long-term study, HPV-31 specific DNA (Southern Blot); format: cell-based, human papilloma virus
Procedure: (§1) HPV-31 infected cells (3×10^6) were dispensed into 14.5 cm dishes containing fresh E medium and 1×10^6 cells of mitomycin C-treated 3T3 fibroblast feeders. The dishes were incubated in a CO2 incubator under 5% CO2 at 37° C. in 100% humidity. Human A431 epithelial cancer cells were used as HPV-uninfected negative controls. After 6 hr incubation, the cell culture medium was removed and fresh E medium containing 0.85 g/L NaHCO3 and a test compound at concentrations of 10 and 3.3 μg/mL, or control (interferon γ at 200 IU/mL) were added. For each concentration, 4 dishes were prepared. The dishes were incubated at 37° C. in a CO2 incubator. The culture medium was replaced to new E medium containing each concentration of the test compound or control in every 72 hrs. After seven days, or when untreated cells became confluent, one dish of each group was harvested for DNA/RNA extraction, followed by Southern/Northern Blot analysis; and one dish was trypsinized, cell number were determined and cells were seeded in three new dishes, treated and cultured as described above. This procedure was repeated for 9 passages. During these passages, morphology of cells and cell density were monitored.
Effect on HPV-31 specific DNA and RNA: DNA and RNA were analyzed in Southern and Northern Blot gels for HPV-31 specific sequences. X-ray films were scanned and optical densities of HPV-31 specific DNA and major mRNA species were integrated. Time curves were established by plotting integrated values against number of passages for each treatment dose. The T50 (time required to reduce the level to 50% of control) was determined from the time curves from crossing points of time curves with a line parallel to the x-axis corresponding to 50% of integrals of untreated control sample.

[2] = system: HPV-31-infected CIN612 9E keratinocytes; test: Long-term study, effect on cell proliferation of CIN612 9E cells over 9 passages; format: cell-based, human papilloma virus
Procedure: as §1
(§2) Effect on cell proliferation. Cell numbers in the dishes harvested were determined in a Neubauer hematocytometer. The multiplication factor was determined at every step of passage. The cell number of each culture at the end of the passage was divided by the number of seeded cells at the start of each passage. The end point was reached when keratinocytes treated with a test compound stopped growing. Stop of cell growth was defined as a multiplication factor of no greater than 1.

[3] = system: HPV-31 specific RNA in HPV-31-infected CIN612 9E keratinocytes; test: Short-term study, inhibition of HPV-31 specific RNA expression (Northern Blot); format: cell-based, human papilloma virus; details: Human papillomavirus, Keratinocyte; 72 hrs, 37° C.
Procedure: (§3) The inhibitory activities of optically active (−)-enantiomer 1A against human papilloma virus were evaluated using HPV-31-infected CIN612 9E keratinocytes (Meyers et al., Science 1992, 257, 971-973).
(§4) Effect on HPV-31 specific DNA and RNA. HPV-31 infected cells (3×10^6) were dispensed into 14.5 cm dishes containing fresh E culture medium and 1×10^6 mitomycin C-treated J2 3T3 fibroblast feeders. After 6 hrs, fresh medium containing 0.85 g/L NaHCO3 and a test compound at a series of concentrations (0, 0.5, 1, 2, 4, 8, 16, and 32 μg/mL) were added. All samples were tested in duplicates at each concentration. After incubation at 37° C. for 72 hrs, the feeder cells were removed with 4 mM EDTA, and DNA and RNA was then isolated. The isolated DNA and RNA were analyzed in Southern and Northern Blot gels for HPV-31 specific sequences. Human A431 epithelial cancer cells were used as HPV-uninfected negative control. X-ray films were scanned and optical densities of HPV-31 specific DNA and major mRNA species were integrated.
(§5) Dose response curves were established by plotting integrated values against the concentrations of the test compound.

[4] = system: HPV-31 specific DNA in HPV-31-infected CIN612 9E keratinocytes; test: Short-term study, inhibition of HPV-31 specific DNA (Southern Blot); format: cell-based, human papilloma virus; details: Human papillomavirus, Keratinocyte; at 32 μg/mL, 72 hrs
Procedure: as §3, §4, §5

actin specific RNA = test: Short-term study, effect on control RNA expression; format: cell-based; details: 0-32 μg/mL, 72 hrs
Procedure: as §4, §5

[5] = system: A431 cells (epithelial cancer cells); test: Long-term study, growth of HPV-uninfected control A431 cells over 9 passages; format: cell-based, human
Procedure: as §1, §2

CIN 612 9E cells = test: Long-term study, cell morphology; format: cell-based, human papilloma virus; details: 10 μg/mL, after five passages
Procedure: as §1

[6] = system: Herpes simplex virus type-2 (HSV-2); test: Inhibition of HSV-2 (plaque assay; Calu-6 infected, RITA cells for plaques); format: cell-based
Procedure: Calu-6 cells and RITA cells were grown in DMEM cell culture medium containing 10% fetal calf serum in CO2 incubator under 5% CO2 at 37° C. with 100% humidity.
For HSV-2 inhibition, Calu-6 cells were seeded in 96 well plates at a density of 3×10^6 cells per plate in the DMEM cell culture medium. The plates were incubated at 37° C. in the presence of 5% CO2 for 24 hr. The DMEM cell culture medium in the plates was removed and the cells were infected with Herpes simplex virus type-2 at 50 plaque forming units per well. After incubation at 37° C. for 60 min, test compounds in DMEM cell culture medium at a series of concentrations were added. The plates were incubated at 37° C. in the presence of 5% CO2 for 48 hr. The plates were frozen at −20° C. prior to further analysis. After thawing at room temperature, supernatants containing infectious virus particles were prepared by centrifuging the supernatant from each well at 18,000 g at 4° C. for 5 min. The supernatant was further diluted before assay.
RITA cells were seeded in 24 well Linbra plates at a density of 4×10^6 cells per plate in 2 mL of DMEM cell culture medium. The plates were incubated at 37° C. in the presence of 5% CO2 for 24 hr. After the removal of the cell culture medium, 0.1 mL of the diluted supernatants was added and the plates were incubated at 37 C for 1 hr. DMEM cell medium containing 10% fetal calf serum and 0.5% methyl cellulose was added and the plates were incubated at 37 for 48 hr. The plates were then washed with PBS, fixed with 3% formaldehyde solution containing 0.9% NaCl for 1 min, washed by water for 10 sec, and dried overnight. For detection, the plates were then stained with crystal violet solution for 5 min at room temperature, washed 5 times with water, and dried at room temperature overnight. The number of plaques was determined macroscopically. The number of plaques per well was then multiplied with the dilution factor. Dose response curves were obtained by plotting the number of plaques/0.1 mL against compound concentration. The therapeutic index was also calculated for each compound by dividing LD50 with IC50.

**Q.** Which results are given for `S=C(S)OC1CC2CC1C1CCCC21` (single isomer, unassigned; (-)) [(−)-Enantiomer 1A, (−)-O-exo/C-exo-tricyclo[5.2.1.0^2,6]-dec-9-yl-xanthic acid]?
**A.** T50 DNA ([1]; 3.3 μg/mL): 2.23 passages; HPV-31 specific DNA content ([1]; 3.3 μg/mL or 10 μg/mL): continuous reductions; T50 DNA ([1]; 10 μg/mL, listed as (−)-enantiomer 1A): < 1 passages; T50 DNA ([1]; 10 μg/mL, listed as Cmpd 1A): <1 passages; activity at 10 µg/mL ([1]; Human papillomavirus, Keratinocyte, 10 μg/mL, after 6 passages, read-out: number of viral genomes per cell, reduced to): < 5%; activity at 10 µg/mL ([1]; Human papillomavirus, Keratinocyte, 10 μg/mL, after 9 passages, read-out: viral DNA remaining): < 1%; inhibition at 10 µg/mL ([1]; Human papillomavirus, Keratinocyte, 10 μg/mL, after a single passage, read-out: reduction of number of viral genomes per cell): > 50%; growth ([2]; 3.3 μg/mL): reduction of the growth rate; also recorded: the cells almost stopped growing after 9 passages; cell proliferation ([2]; 10 μg/mL): significant reduction of cell proliferation; multiplication factor ([2]; 10 μg/mL, first five passages): 2-2.5; IC50 [3]: 10.7 µg/mL (≈ 46.9 µM); inhibition at 32 µg/mL [4]: 37.5%; expression of the control RNA (actin specific RNA) (actin specific RNA): only affected at the highest concentration of 32 μg/mL; cell growth ([5]; 3.3 μg/mL): slight inhibition of cell growth; cell growth ([5]; 10 μg/mL): slight inhibition of cell growth; cell growth ([5]; overall): only minor effects on cell growth; morphology of cells (CIN 612 9E cells): notable change in the morphology; also recorded: growing more organized like untransformed keratinocytes; also recorded: contact inhibited when cultures grew to confluency; also recorded: acquired a flat round shape; IC50 ([6]; Calu-6 cells, 48 hr, 50 plaque forming units per well): 9.08 ± 3.40 µg/mL (≈ 39.8 µM); Therapeutic Index ([6]; LD50 (Calu-6) divided by IC50 (HSV-2), 2880 min): 10.4
